Results from patent US20210008161A1, “METHODS AND COMPOSITIONS FOR IMPROVED HOMOLOGY DIRECTED REPAIR” (CRISPR THERAPEUTICS AG, priority 2019, published 2021).

What was measured:
CD34-expressing LT-HSPCs = experiment: HDR insertion of AAV-delivered GFP donor into HBB locus (GFP fluorescence); assay type: cell-based, human
Experimental: Frozen CD34-expressing LT-HSPCs derived from plerixafor (i.e., Mozibil®)+GCSF-dual mobilized peripheral blood obtained from healthy human donors were purchased from a commercial vendor. LT-HSPCs were maintained in culture media comprised of the reagents shown in Table 4 and were incubated at 37° C., 5% carbon dioxide, 4% oxygen. […] 2×10^5 cells were edited with 3 μg Cas9 and 3 μg gRNA. The target gene sequence (including target sequence with PAM), R02 spacer sequence, and R02 sgRNA sequence are identified in Table 3.
The cells were transfected with a dsDNA homology donor encoding GFP under a SFFV promoter (SEQ ID NO: 60) that was delivered by AAV (SEQ ID NO: 56). […] The HDR efficiency was determined by measuring the level of GFP fluorescence in the cells following electroporation. To determine the effect of 53BP1 inhibition on HDR efficiency, the 53BP1 inhibitor i53 was introduced as an mRNA-encoded protein to the cells during electroporation with Cas9/gRNA RNP and AAV DNA that serves as a donor for homology directed repair.
The effect of 53BP1 inhibition on HDR efficiency was compared to other mRNA-encoded proteins that inhibit the NHEJ pathway. These included the proteins CYREN1 and CYREN2 that inhibit Ku70/80, a heterodimer that binds DNA blunt ends to prevent processing of 3′ single-stranded DNA tails necessary for HDR repair. Cells were electroporated with RNP, an AAV-GFP homology donor and mRNA encoding either i53 (mRNA ORF shown in SEQ ID NO: 69), CYREN1, or CYREN2.
The effect of treatment with i53 and Nu7441 was compared for improving efficiency of HDR repair of the HBB locus. Cells were treated with different doses of Nu7441 or with mRNA encoding i53 (ORF shown by SEQ ID NO: 69).

HEK293 T cells = experiment: BFP to GFP fluorescent reporter assay of HDR efficiency (AAVS1 locus); assay type: cell-based, human
Experimental: An in vitro assay was conducted to determine the ability of various inhibitors and enhancers to improve the efficiency of HDR repair in HEK293 T cells. Specifically, a fluorescent reporter-based screening approach was developed to identify molecules that enhance gene-editing by HDR. A reporter system was generated in HEK293 T cells comprising a genomic AAVS1 locus that encoded either a blue fluorescent protein (BFP) or a green fluorescent protein (GFP) within the AAVS1 locus. A gene encoding BFP can be converted to a gene encoding GFP by substitution of cytosine at position 199 to uridine (e.g., a C to U transition at position 199). By introducing a DSB within the BFP gene using a CRISPR/Cas9 gene-editing system, a homology donor DNA encoding the nucleotide substitution can be used to edit the BFP gene to a GFP gene by HDR repair. Thus, a gene edit that induces a C to U transition at position 199 results in a change in cellular fluorescence. A change in the fluorescence of the cell measured by flow cytometry can be used to quantify efficiency of HDR repair. Additionally, the reverse gene edit can be performed for an AAVS1 locus encoding a GFP gene, wherein a GFP can be converted to BFP by substitution of uridine at position 199 to cytosine.
To create the reporter system, an AAV-based homology donor DNA encoding either BFP or GFP was created. The AAV-BFP or AAV-GFP donor was flanked by homology arms that were 1000 base pairs in length and expression of BFP or GFP was driven by the MND promoter (e.g., a synthetic promoter that contains the U3 region of a modified Moloney murine leukemia virus long term terminal repeat with myeloproliferative sarcoma virus enhancer and deleted negative control region, SEQ ID NO: 58). The viral DNA was packaged into capsids of adeno-associated virus serotype 6 (AAV6) vector. Either the BFP or GFP donor was introduced using the AAV6 vector into the AAVS1 locus in HEK293 T cells by homologous recombination using CRISPR-Cas9 as follows: purified Cas9 protein was complexed with two different single gRNAs (sgRNAs) targeting the AAVS1 locus at SEQ ID NO: 3 (spacer sequence identified by SEQ ID NO: 4; gRNA obtained from Maxcyte) or SEQ ID NO: 5 (spacer sequence identified by SEQ ID NO: 6; gRNA obtained from Thermo Fisher). Cas9 protein used in the Exemplary section provided herein refers to Cas9 polypeptide derived from S. pyogenes (SpCas9), unless indicated otherwise.
The Cas9-sgRNA complex was electroporated into the HEK293 T cells using the Lonza Nucleofector program CM-130. Approximately, 2 hours after electroporation, the cells were infected with various viral doses of AAV6 encoding a BFP (SEQ ID NO: 44) or GFP homology donor (SEQ ID NO: 47). One week later, cells were analyzed by flow cytometry to verify integration and expression of BFP or GFP in the AAVS1 locus. HEK293 T cells expressing BFP or GFP were sorted into single cells in 96-well plates. After ˜2 weeks of growth, DNA extracted from individual cells was analyzed for precise integration of the respective BFP or GFP gene into the AAVS1 locus by long-range PCR. This PCR analysis allowed for determination of whether the BFP/GFP gene was integrated in one or both alleles of the AAVS1 locus.
To introduce a gene edit that converts BFP to GFP, cells were electroporated with ribonucleoprotein (RNP) comprised of Cas9 and sgRNA that targets the BFP gene encoded in the AAVS1 locus. The sgRNA targeted a sequence in the BFP gene identified by SEQ ID NO: 7 (sgRNA spacer sequence identified by SEQ ID NO: 8). The sgRNA were prepared using a standard sgRNA cassette specific to SpCas9, as indicated by SEQ ID NO: 2 (wherein a, c, g, u represent 2′ O-methyl phosphorothioate nucleotides; s represents phosphorothioate nucleotides; and A, C, G, U, N represent canonical RNA nucleotides). The gRNAs used in the Exemplary section provided herein were sgRNAs prepared with the SpCas9 sgRNA cassette unless indicated otherwise. […]

[1] = 0.75 μg mRNA encoding i53, 5 μM Nu7441, control mRNA DM, FIG. 6C
[2] = 1.25 μM SCR7 or 10 μM RS-1, ssODN1-4, relative to DMSO alone, FIG. 1A

**Q.** Which HDR efficiency (CD34-expressing LT-HSPCs; [1]) does the source give for O=c1cc(N2CCOCC2)oc2c(-c3cccc4c3sc3ccccc34)cccc12 [Nu7441] here?
**A.** comparable increase

**Q.** And the “fold higher HDR efficiency” value (HEK293 T cells; 2.5 μM Nu7441, each of ssODN1-4, FIG. 1A)?
**A.** approximately 3 fold

**Q.** What about the “fold higher HDR efficiency, high vs low concentration” value (HEK293 T cells; 2.5 μM vs 0.6 μM, FIG. 1B, 1C) of the same compound?
**A.** approximately 1.5 fold

**Q.** What about the “HDR efficiency at higher concentrations” value (HEK293 T cells; concentrations higher than 2.5 μM) of the same compound?
**A.** no further improvement

**Q.** And the “improvement in HDR efficiency, dose dependence” value (HEK293 T cells; varied doses, FIG. 1B)?
**A.** dose-dependent

**Q.** For O=C(Nc1ccc(Br)cc1)c1ccc(Br)c(S(=O)(=O)NCc2ccccc2)c1 [RS-1], which HDR efficiency (HEK293 T cells; [2]) is on record?
**A.** no improvement

**Q.** With O=c1[nH]c(=S)[nH]c(N=Cc2ccccc2)c1N=Cc1ccccc1 [SCR7] as the compound, how does the HDR efficiency (HEK293 T cells; [2]) read?
**A.** no improvement

**Q.** With “i53: polypeptide inhibitor of 53BP1 (SEQ ID NO: 70), introduced as an mRNA-encoded protein (ORF SEQ ID NO: 69)” as the compound, how does the HDR efficiency (CD34-expressing LT-HSPCs; [1]) read?
**A.** comparable increase

**Q.** What about the “HDR efficiency at each dose” value (CD34-expressing LT-HSPCs; 0.5, 1, and 2 μg i53 mRNA, FIG. 6A) of the same compound?
**A.** improved

**Q.** And the “fold increase in HDR efficiency” value (CD34-expressing LT-HSPCs; GFP donor into HBB locus, mRNA encoding i53, over RNP+AAV-only, FIG. 6A)?
**A.** approximately 1.3 fold

**Q.** What about the HDR efficiency (CD34-expressing LT-HSPCs; mRNA-encoded proteins, i53 mRNA at 0.3 μg or 1 μg, over RNP+AAV-only, FIG. 6B) of the same compound?
**A.** increased

**Q.** What about the HDR efficiency (HEK293 T cells; different doses of mRNA encoding i53, ssODN Hn-91-61 and Ht-39-88, FIG. 1D) of the same compound?
**A.** increased
